# Test results from paper PMC5557811 (Scientific Reports, 2017).
# “Also recorded” adds a separate entry of the source.
# Experiments:
# [1] = system: Piriformospora indica; conditions: cited from earlier work
# Source text: (§1) Insects are well protected against pathogens by an immunity-related arsenal of effector molecules including antimicrobial peptides (AMPs). Some AMPs are active against a broad spectrum of microbes, whereas the activity of others is restricted to certain types of bacteria or fungi. Insects produce a large number of antifungal peptides to protect them against fungal pathogens and parasites, and these peptides often interact with intracellular targets to inhibit key physiological processes such as DNA and protein synthesis, cell cycle progression and metabolic activity[1]–[3]. AMPs therefore offe ...
# [2] = system: Blumeria graminis f. sp. hordei; conditions: cited from earlier work
# Source text: as §1
# [3] = system: Fusarium graminearum; conditions: in vivo; cited from earlier work
# [4] = system: SDH activity of P. indica mitochondrial SQR (complex II); assay type: biochemical, Piriformospora indica
# [5] = system: SdhB; assay type: binding, Fusarium graminearum
# [6] = system: yeast strain Y2HGold; test: Bait toxicity test in yeast; assay type: cell-based, Saccharomyces cerevisiae; conditions: pGBKT7::Mtk vs pGBKT7 empty vector, growth on SDO/–Trp plates; data not shown
# [7] = system: SDH activity of F. graminearum mitochondrial SQR (complex II); assay type: biochemical, Fusarium graminearum; conditions: absorbance 600 nm, 25 °C
# [8] = system: Fusarium graminearum; conditions: read-out: IC50 against F. graminearum; cited from earlier work
# [9] = system: β(1,3)-glucanosyltransferase Gel1; conditions: cited from earlier work
substance,measurement,setting,value
"metchnikowin (HRHQGPIFDTRPSPFNPNQPRPGPIY; Metchnikowin synthetic; UniProt Q24395 27-52, looked up) [Mtk, 26-residue proline-rich linear antifungal peptide from Drosophila melanogaster; synthetic Mtk from Pepmic used in SDH assay]",antifungal activity when expressed in barley,[1],inactive
same,antifungal activity when expressed in barley,[2],acts specifically against
same,antifungal activity when expressed in barley,[3],acts specifically against
same,reduction in mitochondrial SDH activity,[4],unaffected; also recorded: no reduction was observed; also recorded: did not inhibit
same,YFP fluorescence of Mtk constructs without a fusion partner (auto-activation),"[5]; Mtk constructs with YFPCempty or YFPNempty, cytoplasm and nucleus",produced YFP fluorescence in both the cytoplasm and nucleus
same,YFP fluorescence on co-expression of Mtk and SdhB,"[5]; Nicotiana benthamiana leaves, 3 days after injection, Mtk and SdhB YFP fusions",did not result in detectable YFP fluorescence
same,toxicity towards yeast cells,[6],not independently toxic
same,"reduction in mitochondrial SDH activity, significance by concentration","[7]; Mtk 2, 1, 0.5, 0.25, 0.12 and 0.06 µM, all concentrations except the lowest, 30 min, vs control without Mtk, means of three independent experiments",All concentrations except the lowest caused significant reductions
same,maximal inhibition of mitochondrial SDH activity,"[7]; synthetic Mtk, tested at 0.06, 0.12, 0.25, 0.5, 1 and 2 µM, isolated mitochondria, DCIP colorimetric, kinetic 30 min, relative to control (0 µM peptide = 100%), mean of three independent experiments, in triplicate",up to 52%
same,IC50,[8],1000 nM
same,interference with F. graminearum cell wall biosynthesis by targeting Gel1,[9],interferes with F. graminearum cell wall biosynthesis
